Where two headings read alike, the source gives them in different places.
Columns and labels:
[1] = test system: P. falciparum 3D7 (MRA-102, drug sensitive); test: SYBR Green I growth inhibition assay, 3D7; format: cell-based; settings: Plasmodium falciparum
Protocol: Fig. 1. […] (B) SYBR Green–based dose response assays were conducted on early-ring stage parasites (6 hours after invasion). […] 3D7 WT (blue), NF54 (green), drug-resistant strains Dd2 (red), HB3 (black), W2 (gray), and D10-ACP-GFP (purple) lines (Sigmoidal, 4PL, X is concentration, n ≥ 3, nonlinear regression, CI: 95%). (C) Schematic diagram of the development of P. falciparum after two consecutive erythrocytic cycles. The time points at which MED6-189 was introduced are depicted in green. HPS, hours post synchronization. […] The images depict various developmental stages of the parasite’s intraerythrocytic life cycle. Bordered images represent time points when drug was first introduced (n = 3 biological replicates, P < 0.05).
(§1) Detailed information on materials and methods is available in the supplementary materials. […] P. knowlesi assays were quantitatively measured by flow cytometry using SYBR Green I and Mitrotracker Deep Red, as previously described ([84], [85]), on a Beckman Coulter CytoFLEX. […]
(§2) P. falciparum in vitro SYBR green fluorescence-based assays The anti-malarial activity of individual analogues were evaluated in-vitro against P. falciparum 3D7 (MRA-102, drug […]
(§3) green-I based fluorescence assay. Parasite growth rate and stages of development were determined via microscopy through Giemsa-stained smears of the cultures. […]

[2] = test system: P. falciparum 3D7 Clone / 3D7 Parental; test: SYBR Green dose response, cloned 3D7 control/parental lines of the resistance selection; format: cell-based, Plasmodium falciparum
From the text: To assess whether we could use the DMSO melting curves previously established for […] by Dziekan et al. ([49]), we calculated the difference in melting temperatures (ΔTm) between our DMSO dataset and Dziekan’s for 364 proteins for which Tm values were confidently calculated by mineCETSA (table S6).
Fig. 4. […] (C) Schematic representation of the CRISPR-Cas9–based replacement strategy used to introduce a deletion of the targeted repeat regions in the PfSec13 gene. The insertion was achieved through overlap extension polymerase chain reaction (PCR) of fragments directly upstream and downstream of the target segment and subsequently formed by primer overlap extension PCR to replicate the desired deletion. […] (D) Predicted structure of the SEC13 protein highlighting the seven amino acid tandem repeat regions targeted for deletion (red). […] Data were analyzed using a Sigmoidal, 4PL (X represents concentration, n = 3, nonlinear regression, CI: 95%).
as §2
green-I based fluorescence assay. Parasite growth rate and stages of development were determined via microscopy through Giemsa-stained smears of the cultures. Serial dilutions of the compounds ranging from 10uM-0.5nM were prepared in 96-well plates (Corning, Costar 3904) followed by […]
hematocrit added to each well. Eight wells were treated with vehicle control (DMSO) as control.
Plates were incubated in a modular incubation chamber (Billups-Rothenberg, Del Mar, CA)

[3] = test system: P. knowlesi YH1 human erythrocyte infecting parasites; test: P. knowlesi in vitro IC50 assay (flow cytometry), human erythrocytes; format: cell-based; settings: Plasmodium knowlesi
Protocol: Fig. 5. In vivo and broad-spectrum antimalarial efficacy of MED6-189. (A) The in vivo efficacy of MED6-189 was evaluated in a humanized mouse model infected with P. falciparum (blue) compared with untreated controls (black). […] The graphs illustrate the logarithmic growth of parasites (y axis) in response to varying drug concentrations (x axis). Error bars represent standard deviations from two independent experiments conducted in triplicate. The regression line is derived from a nonlinear regression analysis (variable slope with four parameters, least squares fit). (C) Proposed mode of action of MED6-189 in P. falciparum–infected erythrocytes. […]
as §1, §2, §3

hTERT = test: Human cell line activity, hTERT; format: cell-based; settings: read-out: IC50 (µM) hTERT

[C-]#[N+][C@]1(C)CC[C@H]2[C@@H]([C@@H](C(C)C)CC[C@]2(C)[N+]#[C-])[C@H]1O [MED6-189]
IC50 ([1]; 3D7, read-out: IC50 (µM) P. falciparum (3D7)): 0.015 µM | IC50 ([1]; 3D7, early-ring stage (6 h after invasion), 72 h exposure, read-out: IC50): 0.014 ± 0.002 µM | IC50 ([2]; 3D7 Parental, drug-sensitive parental line): 15 nM | IC50 ([2]; Plasmodium falciparum, 3D7, 3D7 Clone (drug sensitive)): 13 nM | IC50 ([2]; Plasmodium falciparum, 3D7, 3D7 Parental, drug-sensitive parental line): ~14 nM | IC50 [3]: 309 ± 42 nM | IC50 (hTERT): 26 µM

Reference: PMC11793105, “A kalihinol analog disrupts apicoplast function and vesicular trafficking in P. falciparum malaria” (Science (New York, N.Y.), 2024)
